Legend:
[1] = test system: NF-kB signaling through NIK in human embryonic kidney 293 cells; experiment: 293-NIK NF-kB-Luciferase reporter assay; assay type: cell-based; settings: HEK293, 293 cells with tetracycline-inducible NIK, 1 ug/mL doxycycline, 24 hours, read-out: inhibitory value (IC50) for 293-NIK NF-kB-Luciferase activity
From the text: (1) The first assay was used to profile whether a test compound can inhibit the NF-kB signally through NIK inhibition without affecting cell viability. In this assay, human embryonic kidney 293 cells was stably transfected with a tetracycline-inducible NIK DNA construct containing a cytomegalovirus promoter plus two reporter DNA constructs. One reporter encoded firefly luciferase under the control of three repeats of an NF-kB response element from the ELAM-1 gene and reflects the level of NIK activity in the cells, whereas the other reporter constitutively expressed Renilla luciferase under the control of the herpes simplex virus thymidine kinase promoter and served as a general measure of cell viability. Cells were incubated with different concentrations of compounds (0.2% DMSO final) in medium containing 1 ug/mL doxycycline and 10% tet-system approved fetal bovine serum (Clontech) for 24 hours, after which the reporters' signals were detected using the Dual Glo luciferase detection system (Promega) according to the vendor's protocol. The compounds listed in Table 1 have the corresponding inhibitory value (IC50 in micromolar) for 293-NIK NF-kB-Luciferase activity (values for compounds are presented in the same order as found in Table 1): na, 0.059, na, na, na, 0.105, 0.027, na, 20, 1.2, na, 1.8, 0.0231, 0.879, 0.0361, 0.582, na, 0.142, na, 0.403, 0.059, 0.0331, na, na, 0.0573, 1.5, na, na, 0.0722, na, na, 0.589, 12.7, 3.7, 14.9, na, 0.707, 1, 0.0311, 0.332, 0.309, 0.0142, 0.051, 2.8, 0.129, na, na, 1.5, na, na, na, 1.3, 0.062, 20, 0.31, 0.104, 0.091, 0.037, 0.085, 0.279, na, 0.305, 0.064, 0.332, 0.133, 0.168, 0.217, 0.553, na and na.

[2] = target: T1, nuclear factor-kappa B (NF-kB)-inducing kinase (NIK) (Homo sapiens, UniProt Q99558); experiment: NIK Enzyme Inhibition Assay (Transcreener ADP assay); assay type: biochemical; settings: purified NIK 0.2-1 nM, 10 uM ATP, fluorescence polarization, Morrison's quadratic equation; read-out: inhibitory value (Ki) for NIK
T1 construct: made in house; host or cells: baculovirus-infected insect cells
T1 sequence (Q99558 whole entry): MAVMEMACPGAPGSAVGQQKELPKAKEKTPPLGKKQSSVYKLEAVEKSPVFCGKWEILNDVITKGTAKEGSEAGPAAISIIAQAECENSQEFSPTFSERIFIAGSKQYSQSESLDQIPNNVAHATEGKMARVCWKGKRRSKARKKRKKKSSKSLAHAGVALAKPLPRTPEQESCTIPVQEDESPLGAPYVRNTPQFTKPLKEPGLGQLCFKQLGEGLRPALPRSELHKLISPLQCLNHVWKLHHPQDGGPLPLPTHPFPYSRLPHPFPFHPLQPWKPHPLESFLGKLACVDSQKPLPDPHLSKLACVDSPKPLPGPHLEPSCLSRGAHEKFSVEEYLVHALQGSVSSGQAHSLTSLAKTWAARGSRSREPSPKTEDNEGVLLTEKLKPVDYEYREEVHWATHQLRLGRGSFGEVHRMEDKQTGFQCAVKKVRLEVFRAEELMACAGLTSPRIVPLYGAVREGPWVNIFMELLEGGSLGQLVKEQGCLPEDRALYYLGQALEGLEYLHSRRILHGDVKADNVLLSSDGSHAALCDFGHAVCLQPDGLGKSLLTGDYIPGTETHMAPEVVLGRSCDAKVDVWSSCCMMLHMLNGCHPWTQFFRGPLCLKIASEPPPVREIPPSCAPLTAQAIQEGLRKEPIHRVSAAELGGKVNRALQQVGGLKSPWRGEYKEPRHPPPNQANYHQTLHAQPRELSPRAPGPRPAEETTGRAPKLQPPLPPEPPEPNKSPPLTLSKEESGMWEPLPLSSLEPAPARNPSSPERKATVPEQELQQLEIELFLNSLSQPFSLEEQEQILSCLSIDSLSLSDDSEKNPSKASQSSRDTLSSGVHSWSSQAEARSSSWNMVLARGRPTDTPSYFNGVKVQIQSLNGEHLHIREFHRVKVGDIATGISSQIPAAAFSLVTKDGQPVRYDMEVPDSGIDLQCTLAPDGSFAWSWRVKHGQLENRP

[3] = test system: p52 (NF-kB2) nuclear translocation in HeLa cells; experiment: NIK p52 Translocation Assay (non-classical NF-kB signaling); assay type: cell-based; settings: Homo sapiens; HeLa cells, 100 ng/mL anti-lymphotoxin beta receptor antibody, 5 hours; read-out: inhibitory value (IC50) for NIK p52 Translocation Assay
Experimental: (2) A second set of cell assay was used to define the selectivity of NIK inhibitors toward inhibition of classical vs. non-classical NF-kB signaling and rely on quantification of the nuclear translocation of p52 (NF-kB2) and REL-A (p65) using high content cellular imaging. For the p52 (non-classical NF-kB signaling) nuclear translocation assay, HeLa cells were treated with different concentrations of compounds (0.2% DMSO final) in medium containing 10% fetal bovine serum and then stimulated with 100 ng/mL of an anti-lymphotoxin beta receptor antibody (R&D Systems) for 5 hours. In the REL-A nuclear translocation assay, HeLa cells were incubated with compounds (0.2% DMSO final) for 4.5 hours in medium containing 10% fetal bovine serum before stimulating them with 10 ng/mL tumor necrosis factor (TNF)-α (R&D Systems) for 30 minutes. Cells were fixed with 4% paraformaldehyde, permeabilized by adding 0.1% Triton X-100 in phosphate buffered saline, and then incubated with either 2 ug/mL anti-p52 antibody (Millipore) or 400 ng/mL anti-REL-A (p65) antibody (Santa Cruz Biotechnology). Finally, the cells were incubated with an Alexa488-labeled secondary antibody (Invitrogen) and DRAQ5 DNA stain (Biostatus). Imaging was carried out using an Opera reader (Perkin Elmer) and data are analyzed with the aid of Acapella software (Perkin Elmer). The p52 or REL-A translocation into the nucleus was quantified by the ratio of the nuclear to cytoplasmic signal intensity. The concentration of inhibitor required for 50% inhibition (IC50 values) in these cell assays were derived from the plots of signal vs. inhibitor concentration. The compounds in listed in Table 1 have the corresponding inhibitory value (IC50 in micromolar) for NIK p52 Translocation Assay (values for compounds are presented in the same order as found in Table 1, and “na” means the data for this assay is to be determined): 0.326, 0.33, na, na, na, 0.218, 0.07, na, na, na, 0.129, 7.6, 0.077, 3.4, na, 0.518, na, 0.059, 0.514, 0.127, na, na, 0.010, na, na, 0.313, 0.275, na, 0.0727, na, na, na, na, na, na, 0.194, na, 6.4, 0.22, 0.346, na, na, na and na, na, na, na, na, na, 0.447, na, 0.089, 0.479, 0.489, 0.243, 0.747, 1, na, 1.9, 0.552, 2.1, na. na, na, na, na and na.

Compound | IC50 [1] [nM] | Ki [2] [nM] | IC50 [3] [nM]
N#Cc1ccc2cnn(-c3nc(N)ncc3N)c2c1 [Example T1-9, 1-(2,5-diaminopyrimidin-4-yl)-1H-indazole-6-carbonitrile] | 20000 | 45.9 | –
CC1(C(=O)Nc2cnc(N)nc2-n2ncc3ccc(C#N)cc32)COC1 [Example T1-11, N-(2-amino-4-(6-cyano-1H-indazol-1-yl)pyrimidin-5-yl)-3-methyloxetane-3-carboxamide] | – | 559 | 129
Cc1nc2ccc(C#CC(C)(O)c3nccs3)cc2n1-c1ccnc(N)n1 (stereo not drawn) [Example T1-12, 4-(1-(2-aminopyrimidin-4-yl)-2-methyl-1H-benzo[d]imidazol-6-yl)-2-(thiazol-2-yl)but-3-yn-2-ol] | 1800 | 9.3 | 7600
CC(O)(C#Cc1ccc2cnn(-c3ccnc(N)n3)c2c1)C(F)F (stereo not drawn) [Example T1-19, 4-(1-(2-aminopyrimidin-4-yl)-1H-indazol-6-yl)-1,1-difluoro-2-methylbut-3-yn-2-ol] | – | 190 | 514
COc1ncccc1Nc1ncnc(-n2ncc3ccc(C#N)cc32)n1 [Example T1-23, 1-(4-(2-methoxypyridin-3-ylamino)-1,3,5-triazin-2-yl)-1H-indazole-6-carbonitrile] | – | > 5000 | 10
CC(O)(C#Cc1ccc2ncn(-c3ccnc(N)n3)c2c1)C(F)F (stereo not drawn) [Example T1-26, 4-(1-(2-aminopyrimidin-4-yl)-1H-benzo[d]imidazol-6-yl)-1,1-difluoro-2-methylbut-3-yn-2-ol] | 1500 | 61 | 313
CC(O)(C#Cc1ccc2ncn(-c3ccnc(N)n3)c2c1)C(F)(F)F (stereo not drawn) [Example T1-27, 4-(1-(2-aminopyrimidin-4-yl)-1H-benzo[d]imidazol-6-yl)-1,1,1-trifluoro-2-methylbut-3-yn-2-ol] | – | 570 | 275
CC(O)(C#Cc1ccc2ncn(-c3ccnc(N)n3)c2c1)c1cn[nH]c1 (stereo not drawn) [Example T1-33, 4-(1-(2-aminopyrimidin-4-yl)-1H-benzo[d]imidazol-6-yl)-2-(1H-pyrazol-4-yl)but-3-yn-2-ol] | 12700 | 23 | –
CC(O)(C#Cc1ccc2ncn(-c3ccnc(N)n3)c2c1)C1CC1 (stereo not drawn) [Example T1-34, 4-(1-(2-aminopyrimidin-4-yl)-1H-benzo[d]imidazol-6-yl)-2-cyclopropylbut-3-yn-2-ol] | 3700 | 92.1 | –
CC(O)(C#Cc1ccc2cnn(-c3ccnc(N)n3)c2c1)c1cn[nH]c1 (stereo not drawn) [Example T1-35, 4-(1-(2-aminopyrimidin-4-yl)-1H-indazol-6-yl)-2-(1H-pyrazol-4-yl)but-3-yn-2-ol] | 14900 | 18 | –
CC(C)(O)C#Cc1ccc2cnn(-c3cc(N)ncn3)c2c1 [Example T1-36, 4-(1-(6-aminopyrimidin-4-yl)-1H-indazol-6-yl)-2-methylbut-3-yn-2-ol] | – | 850 | 194
CC(O)(C#Cc1ccc2ncn(-c3ccnc(N)n3)c2c1)CF (stereo not drawn) [Example T1-37, 4-(1-(2-aminopyrimidin-4-yl)-1H-benzo[d]imidazol-6-yl)-1-fluoro-2-methylbut-3-yn-2-ol] | 707 | 2.3 | –
CCOc1nc2ccc(C#CC(C)(C)O)cc2n1-c1ccnc(N)n1 [Example T1-38, 4-(1-(2-aminopyrimidin-4-yl)-2-ethoxy-1H-benzo[d]imidazol-6-yl)-2-methylbut-3-yn-2-ol] | 1000 | 16 | 6400
CC(C)(O)C#Cc1cc2c(cc1F)ncn2-c1ccnc(N)n1 [Example T1-40, 4-(1-(2-aminopyrimidin-4-yl)-5-fluoro-1H-benzo[d]imidazol-6-yl)-2-methylbut-3-yn-2-ol] | 332 | 3 | 346
CC(O)(C#Cc1ccc2ncn(-c3nccc(N)n3)c2c1)c1nccs1 (stereo not drawn) [Example T1-50, 4-(1-(4-aminopyrimidin-2-yl)-1H-benzo[d]imidazol-6-yl)-2-(thiazol-2-yl)but-3-yn-2-ol] | – | 152 | 447
Cc1nonc1C(C)(O)C#Cc1ccc2c(C)nn(-c3ccnc(N)n3)c2c1 (stereo not drawn) [Example T1-61, 4-(1-(2-aminopyrimidin-4-yl)-3-methyl-1H-indazol-6-yl)-2-(4-methyl-1,2,5-oxadiazol-3-yl)but-3-yn-2-ol] | – | 383 | 2100
CC(O)(C#Cc1ccc2c(C(=O)N3CCCC(O)C3)nn(-c3ccnc(N)n3)c2c1)c1ncccn1 (stereo not drawn) [Example T1.1-145, [1-(2-aminopyrimidin-4-yl)-6-(3-hydroxy-3-pyrimidin-2-yl-but-1-ynyl)indazol-3-yl]-(3-hydroxy-1-piperidyl)methanone] | – | 11 | –
CC(O)(C#Cc1ccc2c(C(=O)N3CC(O)C3)nn(-c3ccnc(N)n3)c2c1)c1ncccn1 (stereo not drawn) [Example T1.1-146, [1-(2-aminopyrimidin-4-yl)-6-(3-hydroxy-3-pyrimidin-2-yl-but-1-ynyl)indazol-3-yl]-(3-hydroxyazetidin-1-yl)methanone] | – | 3400 | –
CC(O)(C#Cc1ccc2c(C(=O)N3CC(C#N)C3)nn(-c3ccnc(N)n3)c2c1)c1ncccn1 (stereo not drawn) [Example T1.1-147, 1-[1-(2-aminopyrimidin-4-yl)-6-(3-hydroxy-3-pyrimidin-2-yl-but-1-ynyl)indazole-3-carbonyl]azetidine-3-carbonitrile] | – | 4 | –
CC(O)(C#Cc1ccc2c(C(=O)NC3COC3)nn(-c3ccnc(N)n3)c2c1)c1ncccn1 (stereo not drawn) [Example T1.1-148, 1-(2-aminopyrimidin-4-yl)-6-(3-hydroxy-3-pyrimidin-2-yl-but-1-ynyl)-N-(oxetan-3-yl)indazole-3-carboxamide] | – | 0.1 | –
CC(O)(C#Cc1ccc2c(C(=O)N3CCOCC3)nn(-c3ccnc(N)n3)c2c1)c1ncccn1 (stereo not drawn) [Example T1.1-149, [1-(2-aminopyrimidin-4-yl)-6-(3-hydroxy-3-pyrimidin-2-yl-but-1-ynyl)indazol-3-yl]-morpholino-methanone] | – | 0.3 | –
CC(O)(C#Cc1ccc2c(C(=O)NCC#N)nn(-c3ccnc(N)n3)c2c1)c1ncccn1 (stereo not drawn) [Example T1.134, 1-(2-aminopyrimidin-4-yl)-N-(cyanomethyl)-6-(3-hydroxy-3-pyrimidin-2-yl-but-1-ynyl) indazole-3-carboxamide] | – | 2 | –

From patent publication US8901313B2, “6,5-heterocyclic propargylic alcohol compounds and uses therefor” (Genentech, Inc., priority 2011, dated 2014)
